Results on 3 compounds are retold here after patent EP1089763B1, “AGENTS FOR SPECIFICALLY INHIBITING OSTEOCLASTIC BONE RESORPTION” (Dietsch, Peter, priority 1998, dated 1999).

One may read the Kd as the concentration at which binding is half-saturated. The Ki is a measure of affinity in units of concentration, obtained from inhibition or displacement.

Data set [1] concerns Osteoklasten. The following applies: not told.
Another data set has as its target Carboanhydrase II (Homo sapiens, UniProt P00918). The following applies: fluorescent DNSA-Carboanhydrase II complex, 1:1; read-out: Dissoziationskonstante KD; cited from earlier work.
Another data set concerns Nierenzellen. The data set can be described thus: Uptake into kidney cells, DNSA fluorescence displacement (Abb. 2). The following applies: Nierenzellen with Carboanhydrase II.
The subject of data set [2] is Knochenresorption. The data set can be described thus: Strontium excretion and tibia mineral content in strontium-loaded growing rats. In kind it is in vivo, Ratten. As to the method: Wachsenden Ratten - 6 Wochen alt - wurden sechsmal in Abständen von drei Tagen jeweils 2 mg SrCl2 in physiologischer Kochsalzlösung subkutan injiziert. Die Tiere bauen das Strontium analog dem Calcium in den Knochen ein. Entsprechend der Rate des Knochenumbaus wird das Strontium über Harn und Fäces während eines längeren Zeitraums wieder ausgeschieden. Nach einer 14 tägigen Latenzzeit in der sie eine calciumarme Diät erhielten, wurden ihnen verschiedene Konzentrationen von 1 i.p. apliziert und die Ausscheidung des Strontiums atomabsorptionsspektroskopisch gemessen. Die Abb.
Nach Abschluß des Versuches wurden die Tibiae präpariert und deren Gehalt an Calcium, Strontium und Phosphat bestimmt.

Data set [3] has as its system Knochenresorption. Kind of data set: Serum calcium after injection of parathormone in rats. In kind it is in vivo, Ratten. The following applies: three days after a single dose of 10 mg/kg, Abb. 5. An excerpt: Die Hemmung der Knochenresorption in Ratten, die mit 1 behandelt wurden, kann an der Änderung der Calciumkonzentration im Serum nach Injektion von Parathormon demonstriert werden (Abb. 5).

The test system of another data set is Knochenresooorption. Kind of data set: Ovariectomised rats, osteoporosis model. In kind it is in vivo, Ratten. The following applies: several months.
The test system of data set [4] is Osteoklasten. The data set can be described thus: Bone resorption by osteoclasts settled on dentine slices (cell culture). In kind it is cell-based.
In data set [5] the target is Isoenzym Carboanhydrase II (Homo sapiens, UniProt P00918). Kind of data set: Inhibition constant for carbonic anhydrase II. In kind it is biochemical. The note with it: Isoenzym Carboanhydrase II expressed in osteoclasts; read-out: Inhibitorkonstante KI.
The subject of another data set is Erythrozyten. In kind it is cell-based. The following applies: not told.

Excerpt for Nierenzellen: Das Maximum der Anregung der Fluoreszenz liegt bei einer Wellenlänge von 320 nm, das Maximum der Emission bei 470 nm. Diese Fluoreszenz läßt sich gut von der des ungebundenen DNSA unterscheiden, da diese grün und sehr viel schwächer ist. Sie hat ihr Emissionsmaximum bei 580 nm. Die Carboanhydrase bindet DNSA im stöchiometrischen Verhältnis 1:1.

Take `CN(C)c1cccc2c(S(N)(=O)=O)cccc12` [DNSA]: the membrane permeability result with Osteoklasten [1] is “kann Zellmembranen passieren”. In addition, at Carboanhydrase II, the Kd was 240 nM.
Consider `CCOc1ccc2nc(S(N)(=O)=O)sc2c1` [Ethoxzolamid, 6-Ethoxybenzothiaziol-2-sulfonamid, reference compound], for which the uptake into cells result in the data set on Nierenzellen is on record as “aufgenommen”.
As to `NS(=O)(=O)c1ccc(CNC(=S)Nc2ccc(OC3OC(CO)C(O)C(O)C3O)cc2)cc1` [compound 1, N-α-D-Mannopyranosylphenyl-N'-p-amidosulfonylbenzylthioharnstoff], the Strontiumausscheidung entry in the data set on Knochenresorption [2] (rats, various concentrations i.p., after SrCl2 loading and low-calcium diet, Abb. 3) is recorded as “Erniedrigung der Strontiumausscheidung”. In the data set on Knochenresorption [2] (versus control group, at the end of the experiment, Abb. 4), the “Gehalt an Calcium, Strontium und Phosphat (Tibiae)” value is “deutlich höhere Konzentration”. For the same compound, in the data set on Knochenresorption [3], the “knochenauflösende Wirkung von Parathormon (Calciumkonzentration im Serum)” value is given as “vollständig blockiert”. Further, in the data set with Knochenresooorption, the “Hemmwirkung auf die Knochenresooorption” value was “Hemmwirkung” and the Nebenwirkungen entry was “keine Nebenwirkungen”. Also, the resorption entry in the data set with Osteoklasten [4] (in the presence of osteoclast-activating hormones) is “keine Resorption mehr”. For the same compound, in the data set on Osteoklasten [4] (osteoclasts on Dentinplättchen), the resorption entry is given as “hören sie auf zu resorbieren”. Besides, in data set [5], the Ki worked out at 800 nM. For the same compound, in the data set on Erythrozyten, the “permeability of the cell membrane” value is recorded as “teilweise für 1 durchlässig”. Further, in the data set on Nierenzellen, the uptake into cells result is listed as “nicht aufgenommen”.
